In patent publication US20020132225A1, “Compositions and methods for prolonging survival of chilled platelets” (priority 2000, published 2002):

Experiments:
[1] = system: stimulated THP-1 cells; assay: In vitro phagocytic assay: phagocytosis of chilled platelets by THP-1 cells (FACS); format: cell-based, human; conditions: for inhibition of phagocytosis of platelets by phagocytic cells: up to 200 mM
Source text: As a first step toward evaluation of this strategy, we have developed an in vitro phagocytic assay to study the interaction between chilled platelets and mononuclear phagocytes. […] These measurements can be made with a fluorescence-activated cell sorter (FACS). […] None of these sugars had any effect on platelet aggregation induced by thrombin or by ristocetin. The latter result is particularly important, because it reflects platelet hemostatic function mediated by GPIb interaction with von Willebrand factor.
In these experiments (FIG. 11, 12, and 13) platelets were loaded with fluorescent dye CM-Orange, then incubated for 1 h at 22° C. (control), 4° C. (chilled) or exposed to UV (UV). Phagocytosis was quantified by measuring the incorporation of CM-orange-fluorescence (CM-Orange labeled platelets) into monocyte-sized cells. Bound versus ingested platelets were separated by labeling the cells after the phagocytic period with FITC-labeled anti-integrin-β3 (CD 61) antibodies, e.g., bound platelets will be FITC positive, ingested platelets will be negative. The uptake of control versus chilled platelets was compared. Chilled platelets are phagocytized because they fail to label with FITC-conjugated anti-β3 antibodies (CM-Orange positive), whereas control platelets are poorly ingested although some platelets are bound to the monocyte surface. From this experiment, the ratio of 22° C. to 4° C. ingested platelets (CM-Orange positive) can be calculated. […] These findings indicate that the cold platelet clearance differs from UV-induced clearance.

[2] = system: OG-permeant platelets; assay: Actin filament barbed end exposure in chilled OG-permeabilized platelets; format: cell-based, human; conditions: OG-permeant platelets cooled
Method: We studied the biochemical and structural basis for the cold-induced shape transformation in human platelets and found it to require net actin assembly. To understand the signals involved in this process, we applied a permeabilization scheme to the cooling process that we have used to dissect PAR-1 mediated actin assembly. In this approach, platelets are first permeabilized with 0.25% octylglucoside (OG), then chilled to 4° C. for 5 min and rewarmed to 37° C. Resting platelets remained discoid at 37° C. after permeabilization with OG but changed shape when chilled. Chilled OG-permeant platelets have blebs on their surfaces and elaborate filopodial processes. […] Rewarming is required to assay filament end numbers, because we discovered that OG-treated platelets reseal in the cold, but become permeable again when rewarmed. We assayed the number of actin filament barbed ends biochemically by monitoring the acceleration of pyrene-actin polymerization rates fluorometrically in the presence and absence of CB (Hartwig, J. et al., Cell 82:643-653).

| Compound | inhibition of phagocytosis of platelets by phagocytic cells [1] | effect on barbed ends exposed upon cooling [2] | other results |
| --- | --- | --- | --- |
| O=C[C@H](O)[C@@H](O)[C@@H](O)[C@H](O)CO [D-galactose] | not |  |  |
| O=C[C@H](O)[C@@H](O)[C@H](O)[C@H](O)CO [D-glucose] | not |  |  |
| Nc1nc2c(ncn2[C@@H]2O[C@H](COP(=O)(O)OP(O)(O)=S)[C@@H](O)[C@H]2O)c(=O)[nH]1 [GDPβS] |  | no effect |  |
| Nc1nc2c(ncn2[C@@H]2O[C@H](COP(=O)(O)OP(=O)(O)OP(O)(O)=S)[C@@H](O)[C@H]2O)c(=O)[nH]1 [GTPγS] |  | no effect |  |
| CC(=O)N[C@H]1C(O)O[C@H](CO)[C@@H](O)[C@@H]1O (stereo partly drawn) [N-acetyl-D-glucosamine] | not |  |  |
| COC1OC(CO)C(O)C(O)C1O [α-methyl-D-glycoside] |  |  | inhibition of CM-Orange pellet phagocytosis by stimulated THP-1 cells ([1]; FIG. 11-13): concentration dependent inhibition |
| N17cdc42: negative dominant form of cdc42 GTPase |  | failed to inhibit |  |
